According to paper PMC9386204, “Design, synthesis, and in silico studies of quinoline-based-benzo[d]imidazole bearing different acetamide derivatives as potent α-glucosidase inhibitors” (Scientific Reports, 2022):

Key:
α-glucosidase [1] = target: T1, α-glucosidase (Saccharomyces cerevisiae, UniProt P53341); assay: α-Glucosidase inhibitory assay; settings: for IC50: α-glucosidase inhibition, mean ± SD
Experimental: The α-glucosidase inhibitory activities of all synthesized derivatives were assayed according to the previously reported procedure[9],[36].

[2] = Concentrations of precipitation; type: physicochemical
Description: Table 1 α-Glucosidase inhibitory activity of compounds 9a–r. | column: Concentrations of precipitation (µM)

α-glucosidase [3] = target: T1, α-glucosidase; assay: Enzyme kinetic studies (Lineweaver–Burk plot, secondary plot); type: biochemical; settings: Km increased, Vmax unchanged
Experimental: A Lineweaver–Burk plot was generated to identify the type of inhibition and the Michaelis–Menten constant (Km) value was determined from the plot between reciprocal of the substrate concentration (1/[S]) and reciprocal of enzyme rate (1/V) over various inhibitor concentrations. The experimental inhibitor constant (Ki) value was constructed by secondary plots of the inhibitor concentration [I] versus Km[6].

T1 sequence (P53341 whole entry): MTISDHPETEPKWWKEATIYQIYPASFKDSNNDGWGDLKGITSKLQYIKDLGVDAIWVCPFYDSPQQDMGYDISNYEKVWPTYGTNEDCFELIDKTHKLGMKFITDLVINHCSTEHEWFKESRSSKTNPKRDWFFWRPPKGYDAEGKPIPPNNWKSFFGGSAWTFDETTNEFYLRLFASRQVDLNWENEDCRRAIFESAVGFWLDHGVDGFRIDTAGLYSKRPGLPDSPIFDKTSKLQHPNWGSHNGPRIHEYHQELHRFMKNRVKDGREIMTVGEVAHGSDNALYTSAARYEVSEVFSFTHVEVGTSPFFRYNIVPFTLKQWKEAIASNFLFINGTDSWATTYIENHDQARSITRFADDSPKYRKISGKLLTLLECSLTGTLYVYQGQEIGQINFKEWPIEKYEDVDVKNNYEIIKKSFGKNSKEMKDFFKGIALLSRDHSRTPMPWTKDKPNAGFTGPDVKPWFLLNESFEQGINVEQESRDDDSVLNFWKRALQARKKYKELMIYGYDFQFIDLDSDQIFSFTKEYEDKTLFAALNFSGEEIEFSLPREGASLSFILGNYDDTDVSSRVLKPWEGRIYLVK

Concentrations of precipitation [2] [µM]	melting point [°C]	fold loss of potency compared to 9a (α-glucosidase [1]; versus 9a)	type of inhibition (α-glucosidase [3])	Molecule	IC50 (α-glucosidase [1]) [µM]
≥ 200	180 to 182	–	–	O=C(CSc1nc2ccccc2cc1-c1nc2ccccc2[nH]1)Nc1ccc([N+](=O)[O-])cc1 [Compound 9i, 2-((3-(1H-benzo[d]imidazol-2-yl)quinolin-2-yl)thio)-N-(4-nitrophenyl)acetamide]	–
≥ 200	–	–	–	Cc1ccccc1NC(=O)CSc1nc2ccccc2cc1-c1nc2ccccc2[nH]1 [Compound 9j]	–
≥ 200	181 to 183	–	–	Cc1ccc(NC(=O)CSc2nc3ccccc3cc2-c2nc3ccccc3[nH]2)cc1 [Compound 9k]	–
≥ 200	191 to 193	–	–	COc1ccc(NC(=O)CSc2nc3ccccc3cc2-c2nc3ccccc3[nH]2)cc1 [Compound 9l, 2-((3-(1H-benzo[d]imidazol-2-yl)quinolin-2-yl)thio)-N-(4-methoxyphenyl)acetamide]	–
≥ 200	178 to 180	–	–	CCc1ccc(NC(=O)CSc2nc3ccccc3cc2-c2nc3ccccc3[nH]2)cc1 [Compound 9m, 2-((3-(1H-benzo[d]imidazol-2-yl)quinolin-2-yl)thio)-N-(4-ethylphenyl)acetamide]	–
≥ 200	185 to 187	–	–	Cc1cccc(NC(=O)CSc2nc3ccccc3cc2-c2nc3ccccc3[nH]2)c1C [Compound 9n, 2-((3-(1H-benzo[d]imidazol-2-yl)quinolin-2-yl)thio)-N-(2,3-dimethylphenyl)acetamide]	–
≥ 200	185 to 187	–	–	Cc1cccc(C)c1NC(=O)CSc1nc2ccccc2cc1-c1nc2ccccc2[nH]1 [Compound 9o, 2-((3-(1H-benzo[d]imidazol-2-yl)quinolin-2-yl)thio)-N-(2,6-dimethylphenyl)acetamide]	–
≥ 200	–	–	–	O=C(CSc1nc2ccccc2cc1-c1nc2ccccc2[nH]1)Nc1ccc2ccccc2c1 [Compound 9p, 2-((3-(1H-benzo[d]imidazol-2-yl)quinolin-2-yl)thio)-N-(naphthalen-2-yl)acetamide]	17.7 ± 0.8
≥ 200	183 to 185	–	–	O=C(CSc1nc2ccccc2cc1-c1nc2ccccc2[nH]1)NCc1ccccc1 [Compound 9q, 2-((3-(1H-benzo[d]imidazol-2-yl)quinolin-2-yl)thio)-N-benzylacetamide]	–
≥ 200	186 to 188	–	–	O=C(CSc1nc2ccccc2cc1-c1nc2ccccc2[nH]1)NCc1ccc(F)cc1 [Compound 9r, 2-((3-(1H-benzo[d]imidazol-2-yl)quinolin-2-yl)thio)-N-(4-fluorobenzyl)acetamide]	–

More lines, now with the values behind:

Molecule	Concentrations of precipitation [2] [µM]	melting point [°C]	fold loss of potency compared to 9a (α-glucosidase [1]; versus 9a)	type of inhibition (α-glucosidase [3])	IC50 (α-glucosidase [1]) [µM]
2-((3-(1H-benzo[d]imidazol-2-yl)naphthalen-2-yl)thio)-N-(4-fluorophenyl)acetamide [Compound 9c]	≥ 200	–	–	–	13.5 ± 0.6
O=C(CSc1nc2ccccc2cc1-c1nc2ccccc2[nH]1)Nc1ccccc1 [Compound 9a, 2-((3-(1H-benzo[d]imidazol-2-yl)quinolin-2-yl)thio)-N-phenylacetamide]	≥ 200	–	–	–	–
O=C(CSc1nc2ccccc2cc1-c1nc2ccccc2[nH]1)Nc1ccccc1F [Compound 9b, 2-((3-(1H-benzo[d]imidazol-2-yl)quinolin-2-yl)thio)-N-(2-fluorophenyl)acetamide]	≥ 200	183 to 185	around the twofold loss of potency	–	–
O=C(CSc1nc2ccccc2cc1-c1nc2ccccc2[nH]1)Nc1cccc(Cl)c1 [Compound 9d, 2-((3-(1H-benzo[d]imidazol-2-yl)quinolin-2-yl)thio)-N-(3-chlorophenyl)acetamide]	≥ 200	190 to 192	–	competitive inhibition	–
O=C(CSc1nc2ccccc2cc1-c1nc2ccccc2[nH]1)Nc1ccc(Cl)cc1 [Compound 9e, 2-((3-(1H-benzo[d]imidazol-2-yl)quinolin-2-yl)thio)-N-(4-chlorophenyl)acetamide]	≥ 200	185 to 187	–	–	–
O=C(CSc1nc2ccccc2cc1-c1nc2ccccc2[nH]1)Nc1ccccc1Br [Compound 9f, 2-((3-(1H-benzo[d]imidazol-2-yl)quinolin-2-yl)thio)-N-(2-bromophenyl)acetamide]	≥ 200	181 to 183	–	–	–
O=C(CSc1nc2ccccc2cc1-c1nc2ccccc2[nH]1)Nc1ccc(Br)cc1 [Compound 9g, 2-((3-(1H-benzo[d]imidazol-2-yl)quinolin-2-yl)thio)-N-(4-bromophenyl)acetamide]	≥ 200	185 to 187	–	–	–
O=C(CSc1nc2ccccc2cc1-c1nc2ccccc2[nH]1)Nc1c(Cl)cccc1Cl [Compound 9h, 2-((3-(1H-benzo[d]imidazol-2-yl)quinolin-2-yl)thio)-N-(2,6-dichlorophenyl)acetamide]	≥ 200	188 to 190	–	–	–
